Reference: US8822509B2, “Pain-relieving compositions and uses therefor” (priority 2006, dated 2014)
Entries after “also recorded” stand apart in the source; their conditions may differ. Where two headings read alike, the source gives them in different places. Marks after values point to notes of the source that are not given here.

Experiments:
[1] = biological target: T1, μ-opioid receptors (MOP receptors) (Mus musculus, UniProt P42866); type: cell-based
T1 construct: expressed in transfected cells; host or cells: HEK293
Experimental: Briefly, HEK-MOP cells were pre-incubated with 2% (2-hydroxypropyl)-β-cyclodextrin (βCD) for 1 h at 37° C. to deplete cholesterol from caveloae in the cell membrane. Cells were washed with DMEM and then utilized in the forskolin-stimulated cAMP assay as described above. […] Cells were washed with DMEM and then utilized in the forskolin-stimulated cAMP assay as described above.

[2] = biological target: T1, μ-opioid receptors (MOP receptors); type: cell-based; remark: listed apart in the source

T1 sequence (P42866 whole entry): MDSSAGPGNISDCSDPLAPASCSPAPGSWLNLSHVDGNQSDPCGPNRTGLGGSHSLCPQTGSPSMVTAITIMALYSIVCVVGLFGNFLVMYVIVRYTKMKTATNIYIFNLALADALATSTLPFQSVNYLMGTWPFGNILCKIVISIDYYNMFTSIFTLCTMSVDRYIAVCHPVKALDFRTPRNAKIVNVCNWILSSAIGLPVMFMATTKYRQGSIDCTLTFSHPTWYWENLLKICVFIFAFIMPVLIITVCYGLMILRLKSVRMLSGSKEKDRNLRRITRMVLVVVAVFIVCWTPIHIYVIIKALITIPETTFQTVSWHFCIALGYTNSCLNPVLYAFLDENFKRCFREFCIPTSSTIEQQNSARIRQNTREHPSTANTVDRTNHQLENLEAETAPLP

Compound | % of forskolin stimulated cyclic AMP response ([1]; Conc 10^−3 M) [%] | % of forskolin stimulated cyclic AMP response ([1]; Conc 10^−4 M) | % of forskolin stimulated cyclic AMP response ([1]; Conc 10^−5 M) | % of forskolin stimulated cyclic AMP response ([1]; Conc 10^−6 M) | % of forskolin stimulated cyclic AMP response ([1]; Conc 10^−7 M) [%] | % of forskolin stimulated cyclic AMP response ([1]; Conc 10^−8 M) | % of forskolin stimulated cyclic AMP response ([1]; Conc 10^−9 M) | % of forskolin stimulated cyclic AMP response ([1]; Conc 10^−11 M) [%] | % of forskolin stimulated cyclic AMP response ([1]; Conc 10^−13 M) | % of forskolin stimulated cyclic AMP response ([1]; Conc 10^−14 M) | % of forskolin stimulated cyclic AMP response ([1]; Conc 10^−15 M) | % of forskolin stimulated cyclic AMP response ([1]; Conc 10^−16 M) | % of forskolin stimulated cyclic AMP response ([1]; Conc 10^−17 M) | % of forskolin stimulated cyclic AMP response ([1]; Conc 10^−18 M) | % of forskolin stimulated cyclic AMP response ([2]; Conc 10^−10 M) | % of forskolin stimulated cyclic AMP response ([2]; Conc 10^−12 M) | effect on forskolin-stimulated cAMP responses ([2]; MOP-transfected HEK293 (FIG. 11))
O=C(O)c1c(-c2ccc(F)cc2)no[n+]1[O-] [Compound 18] | 7.1 | 79.0% | 97.7% | 101.0% | 91.9 | 81.7% | 142.3^a % | 77.5 | 85.4% | 85.3% | 90.4% | 89.6% | 94.1% | 54.7^a % | 83.6% | 82.2% | 
Nc1nc2c(nc(Br)n2[C@@H]2O[C@@H]3COP(=O)(O)O[C@H]3[C@H]2O)c(=O)[nH]1 [Compound 8-Br-cGMP, 8-Br-cGMP, reference compound] |  |  |  |  |  |  |  |  |  |  |  |  |  |  |  |  | did not inhibit forskolin-stimulated cAMP responses; also recorded: lack of effects
Cc1c(-c2ccccc2)no[n+]1[O-] [Compound 13] | 40.2 | 67.1% | 109.4^a % | 84.5^a % | 78.8 | 80.3% | 94.9% | 66.3 | 89.6% | 99.4^a % | 101.5% | 88.3^a % | 105.3% | 61.2% | 106.9% | 108.8% | 
[O-][n+]1onc(-c2ccccc2)c1-c1ccccc1 [Compound 5] | 69.6 | 99.8% | 120.4% | 142.4% | 112.7 | 73.6% | 57.7% | 76.3 | 102.3% | 105.6% | 117.0% | 91.2% | 75.8% | 68.7% | 79.2% | 119.1% | 
O=Cc1c(-c2ccccc2)no[n+]1[O-] [Compound 14] | 8.5 | 40.7^a % | 51.0^a % | 110.6^a % | 121.5 | 113.2^a % | 107.4% | 62.7 | 94.2% | 103.4^a % | 103.8% | 129.8% | 120.5% | 95.1% | 69.5% | 92.8% | 
Cc1c(-c2ccc(F)cc2)no[n+]1[O-] [Compound 23] | 46.6 | 121.2% | 66.2% | 90.0% | 89.0 | 98.2% | 64.0% | 75.7 | 87.6% | 79.2% | 80.4% | 77.1% | 73.6% | 80.2% | 56.5% | 74.7% | 
COc1ccc(-c2no[n+]([O-])c2C)cc1 [Compound 24] | 71.2 | 106.7^a % | 131.1^a % | 56.7% | 94.3 | 53.8^a % | 132.4% | 79.4 | 82.3% | 75.1% | 97.0^a % | 88.0% | 70.0% | 70.0% | 60.2% | 90.1% | 
CC(=O)c1c(-c2ccccc2)no[n+]1[O-] [Compound 27] | 22.4 | 73.8^a % | 128.2% | 60.0% | 83.2 | 86.4% | 56.4% | 84.4 | 88.3^a % | 78.2% | 115.4% | 162.4% | 108.6^a % | 56.5% | 46.0% | 66.7^a % | 
CCc1c(C(=O)O)no[n+]1[O-] [Compound 8] | 6.8 | 68.2% | 90.0% | 104.7% | 102.9 | 114.3% | 107.0% | 88.3 | 112.7% | 94.8% | 97.6% | 140.5% | 115.0% | 72.8% | 79.4% | 128.3% | 
[O-][n+]1onc(-c2ccc(F)cc2)c1-c1ccc(F)cc1 [Compound 21] | 7.1 | 42.1% | 63.5% | 53.0% | 47.3 | 57.5% | 46.5% | 29.9 | 61.5% | 59.7% | 64.0% | 67.7% | 49.1% | 38.7% | 38.4% | 42.9% | 
[O-][n+]1onc(-c2ccccc2)c1CO [Compound 31] | 3.8 | 182.4^a % | 96.9^a % | 60.0^a % | 108.4 | 36.2^a % | 76.8^a % | 61.0 | 85.7% | 77.5^a % | 42.2^a % | 54.8% | 48.5^a % | 94.5% | 42.8^a % | 81.4% | 
